In one experiment the target is T1, human H3 receptor (Homo sapiens, UniProt Q9Y5N1).
T1 construct: expressed in transfected cells
The experiment is described as follows: H3 receptor binding (N-[3H]-α-methylhistamine displacement). The settings on record: membranes of SK-N-MC cells expressing cloned human H3 receptor, 0.8 nM N-[3H]-α-methylhistamine, 60 min at 25° C. How it is done:
Briefly, cell pellets from SK-N-MC cells expressing the human H3 receptor were homogenized in 50 mM Tris-HCl/5 mM EDTA and re-centrifuged at 30,000 g for 30 min. Pellets were re-homogenized in 50 mM Tris/6 mM EDTA (pH 7.4). Membranes were incubated with 0.8 nM N-[^3H]-α-methylhistamine plus/minus test compounds for 60 min at 25° C. and harvested by rapid filtration over GF/C glass fiber filters (pretreated with 0.3% polyethylenimine) followed by four washes with ice-cold buffer. Nonspecific binding was defined in the presence of 10 μM histamine.

In a further experiment the target is T2, Rat SERT (Rattus norvegicus, UniProt P31652).
T2 construct: A rat brain without cerebellum (Zivic Laboratories, Inc.—Pittsburgh, Pa.) was homogenized; tissue Zivic Laboratories, Inc; host or cells: rat brain without cerebellum, membranes
Nature of the experiment: Rat brain SERT binding ([3H]-citalopram displacement). The settings on record: rat brain membranes without cerebellum, 0.6 nM [3H]-citalopram, 60 min at 25° C. How it is done:
The supernatant was removed and re-centrifuged at 15,000 rpm for 30 min. […] Membranes were incubated with 0.6 nM [^3H]-Citalopram plus/minus test compounds for 60 min at 25° C. and harvested by rapid filtration over GF/C glass fiber filters (pretreated with 0.3% polyethylenimine) followed by four washes with ice-cold buffer.

Usually Ki stands for a measure of affinity in units of concentration, obtained from inhibition or displacement.

Where two headings read alike, the source gives them in different places.

T1 sequence (Q9Y5N1 whole entry): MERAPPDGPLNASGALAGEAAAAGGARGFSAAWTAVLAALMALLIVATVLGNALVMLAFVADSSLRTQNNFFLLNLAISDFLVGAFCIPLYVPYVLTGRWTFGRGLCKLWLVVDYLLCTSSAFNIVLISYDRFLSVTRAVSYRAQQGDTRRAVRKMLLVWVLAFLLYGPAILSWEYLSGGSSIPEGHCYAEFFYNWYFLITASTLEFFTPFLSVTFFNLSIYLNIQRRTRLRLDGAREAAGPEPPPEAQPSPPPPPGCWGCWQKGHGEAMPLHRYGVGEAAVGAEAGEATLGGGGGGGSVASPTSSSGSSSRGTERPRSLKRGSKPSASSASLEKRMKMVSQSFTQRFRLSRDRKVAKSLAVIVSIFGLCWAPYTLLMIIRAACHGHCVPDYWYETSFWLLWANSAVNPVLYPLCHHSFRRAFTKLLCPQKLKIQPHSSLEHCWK
T2 sequence (P31652 whole entry): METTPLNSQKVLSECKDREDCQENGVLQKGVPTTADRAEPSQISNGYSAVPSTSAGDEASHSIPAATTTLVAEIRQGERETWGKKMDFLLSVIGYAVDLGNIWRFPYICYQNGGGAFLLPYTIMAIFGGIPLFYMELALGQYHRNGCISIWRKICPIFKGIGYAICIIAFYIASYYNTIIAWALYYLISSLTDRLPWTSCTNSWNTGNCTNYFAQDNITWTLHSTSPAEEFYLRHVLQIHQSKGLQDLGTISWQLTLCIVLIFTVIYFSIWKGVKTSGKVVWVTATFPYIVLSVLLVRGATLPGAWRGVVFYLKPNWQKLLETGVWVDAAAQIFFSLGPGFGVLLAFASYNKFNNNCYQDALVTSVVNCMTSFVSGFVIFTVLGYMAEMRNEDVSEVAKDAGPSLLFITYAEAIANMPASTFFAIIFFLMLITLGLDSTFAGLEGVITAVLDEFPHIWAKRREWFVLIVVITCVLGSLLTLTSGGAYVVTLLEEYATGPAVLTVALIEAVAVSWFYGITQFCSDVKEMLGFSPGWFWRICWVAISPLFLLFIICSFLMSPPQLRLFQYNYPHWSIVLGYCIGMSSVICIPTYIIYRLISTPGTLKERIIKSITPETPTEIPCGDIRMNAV

For the compound `COc1ccc(C2CN(C)Cc3cc(OCCCN4CCC[C@H]4C(F)(F)F)ccc32)cc1` (stereo partly drawn) [Example 28, 4-(4-Methoxy-phenyl)-2-methyl-7-[3-((2S)-trifluoromethyl-pyrrolidin-1-yl)-propoxy]-1,2,3,4-tetrahydro-isoquinoline], the Ki at human H3 receptor was 140 nM; at Rat SERT (read-out: Rat SERT Ki) it was 12 nM.

For the compound `CCOC(=O)C1CCN(CCCOc2ccc3c(c2)CN(C)CC3c2ccc(OC)cc2)CC1` (stereo not shown) [Example 33, 1-{3-[4-(4-Methoxy-phenyl)-2-methyl-1,2,3,4-tetrahydro-isoquinolin-7-yloxy]-propyl}-piperidine-4-carboxylic acid ethyl ester], the Ki at human H3 receptor worked out at 172 nM; on Rat SERT (read-out: Rat SERT Ki), 5 nM.

For the compound `COc1ccc(C2CN(C)Cc3cc(OCCCN4CCC(C(F)(F)F)CC4)ccc32)cc1` (stereo not shown) [Example 38, 4-(4-Methoxy-phenyl)-2-methyl-7-[3-(4-trifluoromethyl-piperidin-1-yl)-propoxy]-1,2,3,4-tetrahydro-isoquinoline], the values for the Ki at human H3 receptor and at Rat SERT (read-out: Rat SERT Ki) were 38 nM and 29 nM, respectively.

With `COc1ccc(C2CN(C)Cc3cc(OCCCN4CCC5(CC4)OCCO5)ccc32)cc1` (stereo not shown) [Example 41, 7-[3-(1,4-Dioxa-8-aza-spiro[4.5]dec-8-yl)-propoxy]-4-(4-methoxy-phenyl)-2-methyl-1,2,3,4-tetrahydro-isoquinoline], the Ki was found to be 14 nM on human H3 receptor and 6 nM at Rat SERT (read-out: Rat SERT Ki).

On to `COc1ccc(C2CN(C)Cc3cc(OCC(F)CN4CCC(F)CC4)ccc32)cc1` (stereo not shown) [Example 43, 7-[2-Fluoro-3-(4-fluoro-piperidin-1-yl)-propoxy]-4-(4-methoxy-phenyl)-2-methyl-1,2,3,4-tetrahydro-isoquinoline], for which the results for the Ki on human H3 receptor and at Rat SERT (read-out: Rat SERT Ki) were 18 nM and 3 nM, respectively.

With `CN1Cc2cc(OCCCN3CCC(F)CC3)ccc2C(c2ccc(OC(F)(F)F)cc2)C1` (stereo not shown) [Example 49, 7-[3-(4-Fluoro-piperidin-1-yl)-propoxy]-2-methyl-4-(4-trifluoromethoxy-phenyl)-1,2,3,4-tetrahydro-isoquinoline], the values for the Ki on human H3 receptor and on Rat SERT (read-out: Rat SERT Ki) were 18 nM and 14 nM, respectively.

On to `CN1Cc2cc(OCCCN3CCC(F)CC3)ccc2C(c2ccc(Cl)cc2Cl)C1` (stereo not shown) [Example 54, 4-(2,4-Dichloro-phenyl)-7-[3-(4-fluoro-piperidin-1-yl)-propoxy]-2-methyl-1,2,3,4-tetrahydro-isoquinoline], for which the results for the Ki at human H3 receptor and on Rat SERT (Rat SERT Ki (nM)) were 16 nM and 32 nM, respectively.

For the compound `CN1Cc2cc(OCCCN3CCC(F)CC3)ccc2C(c2cc(Cl)cc(Cl)c2)C1` (stereo not shown) [Example 56, 4-(3,5-Dichloro-phenyl)-7-[3-(4-fluoro-piperidin-1-yl)-propoxy]-2-methyl-1,2,3,4-tetrahydro-isoquinoline], the Ki on human H3 receptor came to 20 nM; at Rat SERT (read-out: Rat SERT Ki) it was 42 nM.

As for `COc1ccc(C2CN(Cc3ccccc3)Cc3cc(OCCCN4CCCCC4)ccc32)cc1` (stereo not shown) [Example 65, 2-Benzyl-4-(4-methoxy-phenyl)-7-(3-piperidin-1-yl-propoxy)-1,2,3,4-tetrahydro-isoquinoline], the Ki on human H3 receptor was 7 nM; at Rat SERT (read-out: Rat SERT Ki), 3000 nM.

On to `CCCN1Cc2cc(OCCCN3CCCCC3)ccc2C(c2ccc(OC)cc2)C1` (stereo not shown) [Example 67, 4-(4-Methoxy-phenyl)-7-(3-piperidin-1-yl-propoxy)-2-propyl-1,2,3,4-tetrahydro-isoquinoline], for which the Ki at human H3 receptor was found to be 0.5 nM; at Rat SERT (read-out: Rat SERT Ki), 104 nM.

With `COc1ccc(C2CN(CCCO)Cc3cc(OCCCN4CCCCC4)ccc32)cc1` (stereo not shown) [Example 70, 3-[4-(4-Methoxy-phenyl)-7-(3-piperidin-1-yl-propoxy)-3,4-dihydro-1H-isoquinolin-2-yl]-propan-1-ol], the results for the Ki on human H3 receptor and at Rat SERT (read-out: Rat SERT Ki) were 1 nM and 49 nM, respectively.

With `COc1ccc(C2CN(C)Cc3cc(OCC4CCNCC4)ccc32)cc1` (stereo not shown) [Example 78, 4-(4-Methoxy-phenyl)-2-methyl-7-(piperidin-4-ylmethoxy)-1,2,3,4-tetrahydro-isoquinoline], the Ki stood at 96 nM at human H3 receptor and 2 nM on Rat SERT (read-out: Rat SERT Ki).

Take `COc1ccc(C2CN(C)Cc3cc(OCC4CCNCC4)ccc32)cc1Cl` (stereo not shown) [Example 79, 4-(3-Chloro-4-methoxy-phenyl)-2-methyl-7-(piperidin-4-ylmethoxy)-1,2,3,4-tetrahydro-isoquinoline]: the inhibitory constant (Ki) on human H3 receptor is 183 nM; on Rat SERT (read-out: Rat SERT Ki), 5 nM.

In the case of `CSc1ccc(C2CN(C)Cc3cc(OCC4CCNCC4)ccc32)cc1` (stereo not shown) [Example 80, 2-Methyl-4-(4-methylsulfanyl-phenyl)-7-(piperidin-4-ylmethoxy)-1,2,3,4-tetrahydro-isoquinoline], the values for the Ki at human H3 receptor and at Rat SERT (read-out: Rat SERT Ki) were 130 nM and 3 nM, respectively.

On to `COc1ccc(C2CN(C)Cc3cc(OCC4CCNCC4)ccc32)cc1F` (stereo not shown) [Example 81, 4-(3-Fluoro-4-methoxy-phenyl)-2-methyl-7-(piperidin-4-ylmethoxy)-1,2,3,4-tetrahydro-isoquinoline], for which the Ki at human H3 receptor stood at 70 nM; at Rat SERT (read-out: Rat SERT Ki), 1 nM.

On to `COc1ccc(C2CN(C)Cc3cc(OCC4CCNCC4)ccc32)c(F)c1` (stereo not shown) [Example 82, 4-(2-Fluoro-4-methoxy-phenyl)-2-methyl-7-(piperidin-4-ylmethoxy)-1,2,3,4-tetrahydro-isoquinoline], for which the results for the Ki at human H3 receptor and at Rat SERT (read-out: Rat SERT Ki) were 64 nM and 6 nM, respectively.

As to `COc1ccc(C2CN(C)Cc3cc(OCC4CCN(C5CCCC5)CC4)ccc32)cc1` (stereo not shown) [Example 86, 7-(1-Cyclopentyl-piperidin-4-ylmethoxy)-4-(4-methoxy-phenyl)-2-methyl-1,2,3,4-tetrahydro-isoquinoline], the Ki was 11 nM on human H3 receptor and 5 nM on Rat SERT (read-out: Rat SERT Ki).

With `CCN1CCC(COc2ccc3c(c2)CN(C)CC3c2ccc(OC)cc2)CC1` (stereo not shown) [Example 87, 7-(1-Ethyl-piperidin-4-ylmethoxy)-4-(4-methoxy-phenyl)-2-methyl-1,2,3,4-tetrahydro-isoquinoline], the Ki on human H3 receptor stood at 2 nM; at Rat SERT (read-out: Rat SERT Ki), 4 nM.

As to `COc1ccc(C2CN(C)Cc3cc(OCC4CCN(C(C)C)CC4)ccc32)cc1Cl` (stereo not shown) [Example 88, 4-(3-Chloro-4-methoxy-phenyl)-7-(1-isopropyl-piperidin-4-ylmethoxy)-2-methyl-1,2,3,4-tetrahydro-isoquinoline], the Ki at human H3 receptor came to 3 nM; on Rat SERT (read-out: Rat SERT Ki), 15 nM.

For the compound `COc1ccc(C2CN(C)Cc3cc(OCC4CCN(C(C)C)CC4)ccc32)cc1F` (stereo not shown) [Example 89, 4-(3-Fluoro-4-methoxy-phenyl)-7-(1-isopropyl-piperidin-4-ylmethoxy)-2-methyl-1,2,3,4-tetrahydro-isoquinoline], the Ki at human H3 receptor is 2 nM; on Rat SERT (read-out: Rat SERT Ki), 5 nM.

On to `CCCN1CCC(COc2ccc3c(c2)CN(C)CC3c2cccc(OC)c2)CC1` (stereo not shown) [Example 93, 4-(3-Methoxy-phenyl)-2-methyl-7-(1-propyl-piperidin-4-ylmethoxy) 1,2,3,4-tetrahydro-isoquinoline], for which the Ki on human H3 receptor was 6 nM; on Rat SERT (read-out: Rat SERT Ki), 22 nM.

Consider `COc1cccc(C2CN(C)Cc3cc(OCC4CCN(C5CCCC5)CC4)ccc32)c1` (stereo not shown) [Example 94, 7-(1-Cyclopentyl-piperidin-4-ylmethoxy)-4-(3-methoxy-phenyl)-2-methyl-1,2,3,4-tetrahydro-isoquinoline], for which the Ki at human H3 receptor came out at 4 nM; at Rat SERT (read-out: Rat SERT Ki) it was 15 nM.

Regarding `CCN1CCC(COc2ccc3c(c2)CN(C)CC3c2cccc(OC)c2)CC1` (stereo not shown) [Example 95, 7-(1-Ethyl-piperidin-4-ylmethoxy)-4-(3-methoxy-phenyl)-2-methyl-1,2,3,4-tetrahydro-isoquinoline], the Ki at human H3 receptor came out at 2 nM; at Rat SERT (read-out: Rat SERT Ki) it was 15 nM.

Take `COc1cccc(C2CN(C)Cc3cc(OC4CCNCC4)ccc32)c1` (stereo not shown) [Example 96, 4-(3-Methoxy-phenyl)-2-methyl-7-(piperidin-4-yloxy)-1,2,3,4-tetrahydro-isoquinoline]: the figures for the Ki on human H3 receptor and on Rat SERT (read-out: Rat SERT Ki) were 182 nM and 14 nM, respectively.

As for `COc1cccc(C2CN(C)Cc3cc(OC4CCN(C)CC4)ccc32)c1` (stereo not shown) [Example 97, 4-(3-Methoxy-phenyl)-2-methyl-7-(1-methyl-piperidin-4-yloxy)-1,2,3,4-tetrahydro-isoquinoline], the figures for the Ki on human H3 receptor and on Rat SERT (read-out: Rat SERT Ki) were 6 nM and 45 nM, respectively.

Turning to `COc1cccc(C2CN(C)Cc3cc(OC4CCN(C(C)C)CC4)ccc32)c1` (stereo not shown) [Example 98, 7-(1-Isopropyl-piperidin-4-yloxy)-4-(3-methoxy-phenyl)-2-methyl-1,2,3,4-tetrahydro-isoquinoline], the Ki at human H3 receptor stood at 2 nM; on Rat SERT (read-out: Rat SERT Ki) it was 11 nM.

As to `COc1cccc(C2CN(C)Cc3cc(OC4CCN(C5CCC5)CC4)ccc32)c1` (stereo not shown) [Example 99, 7-(1-Cyclobutyl-piperidin-4-yloxy)-4-(3-methoxy-phenyl)-2-methyl-1,2,3,4-tetrahydro-isoquinoline], the figures for the Ki on human H3 receptor and at Rat SERT (read-out: Rat SERT Ki) were 2 nM and 20 nM, respectively.

Consider `CCN1CCC(Oc2ccc3c(c2)CN(C)CC3c2cccc(OC)c2)CC1` (stereo not shown) [Example 100, 7-(1-Ethyl-piperidin-4-yloxy)-4-(3-methoxy-phenyl)-2-methyl-1,2,3,4-tetrahydro-isoquinoline], for which the values for the Ki at human H3 receptor and at Rat SERT (read-out: Rat SERT Ki) were 2 nM and 10 nM, respectively.

`COc1cccc(C2CN(C)Cc3cc(OC4CCN(C5CCCC5)CC4)ccc32)c1` (stereo not shown) [Example 101, 7-(1-Cyclopentyl-piperidin-4-yloxy)-4-(3-methoxy-phenyl)-2-methyl-1,2,3,4-tetrahydro-isoquinoline]: the Ki on human H3 receptor amounted to 2 nM; on Rat SERT (read-out: Rat SERT Ki), 18 nM.
